Values of other authors, collected in article PMC4358366, “Identification of ‘erasers’ for lysine crotonylated histone marks using a chemical proteomics approach” (eLife, 2014).
Entries after “also recorded” stand apart in the source; their conditions may differ. Where no end group is shown, it is not given here. The star is where a group is joined. Crotonyl(E) = C/C=C/C(=O)*

What was measured:
Conditions in all cases: H3K9Cr peptide, residues 5–13; [32P]-NAD TLC; ref Feldman et al., 2013; cited from earlier work
[1] = test system: Sirt2
From the text: (§1) Lysine crotonylation (Kcr) is a newly discovered histone PTM that is specifically enriched at active gene promoters and potential enhancers in mammalian cell genomes ([Tan et al., 2011]). […] However, further mechanistic and functional studies of histone Kcr have been limited by a lack of knowledge of the enzymes that catalyze the addition or removal of Kcr in cells. In a systematic screening of the activities of the ... || Siruins were initially recognized as NAD-dependent deacetylases ([Imai et al., 2000]; [Landry et al., 2000]; [Sauve et al., 2006]). […] In this study ...

[2] = test system: Sirt1
From the text: as §1

[3] = test system: Sirt3
From the text: Siruins were initially recognized as NAD-dependent deacetylases ([Imai et al., 2000]; [Landry et al., 2000]; [Sauve et al., 2006]). […] In this study ...

histone H3K9Cr peptide: H3K9Cr peptide of Denu's study, residues 5–13 of histone H3 (QTARK(Crotonyl(E))STGG; UniProt P68431 6-14, looked up, fragment)
decrotonylase activity of Sirt2 (literature) [1]: exhibited decrotonylase activity; also recorded: can catalyze the removal of a crotonyl group | decrotonylase activity of Sirt1 (literature) [2]: exhibited decrotonylase activity; also recorded: can catalyze the removal of a crotonyl group | decrotonylase activity of Sirt3 (literature) [3]: totally inactive
